The source of these data is ChEMBL document CHEMBL1909046, “DrugMatrix in vitro pharmacology data”.

Assay [1] can be described thus: DRUGMATRIX: Atrial Natriuretic Factor (ANF) radioligand binding (ligand: [125I] ANF (rat)). In kind it is cell membranes, Cavia porcellus, Dunkin-Hartley, Adrenal gland, Membrane. The conditions noted are these: Not Active = under 50% inhibition at 10 µM.
Assay [2] in a line: DRUGMATRIX: Serotonin (5-Hydroxytryptamine) 5-HT3 radioligand binding (ligand: [3H] GR-65630). The conditions noted are these: hek293; Not Active = under 50% inhibition at 10 µM. In kind it is cell membranes, Membrane.
For assay [3], the target named is 5-hydroxytryptamine receptor 4 (Cavia porcellus, UniProt O70528). In kind it is cell membranes, Dunkin-Hartley, Striatum, Membrane. Also: in other assays of this panel Not Active means under 50% inhibition at 10 µM.
In another assay the target is T1, Thromboxane-A synthase (Homo sapiens, UniProt P24557).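 Also: enzyme inhibition assay with PGH2 supplied as substrate; in other assays of this panel Not Active means under 50% inhibition at 10 µM.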
T1 sequence (P24557 whole entry): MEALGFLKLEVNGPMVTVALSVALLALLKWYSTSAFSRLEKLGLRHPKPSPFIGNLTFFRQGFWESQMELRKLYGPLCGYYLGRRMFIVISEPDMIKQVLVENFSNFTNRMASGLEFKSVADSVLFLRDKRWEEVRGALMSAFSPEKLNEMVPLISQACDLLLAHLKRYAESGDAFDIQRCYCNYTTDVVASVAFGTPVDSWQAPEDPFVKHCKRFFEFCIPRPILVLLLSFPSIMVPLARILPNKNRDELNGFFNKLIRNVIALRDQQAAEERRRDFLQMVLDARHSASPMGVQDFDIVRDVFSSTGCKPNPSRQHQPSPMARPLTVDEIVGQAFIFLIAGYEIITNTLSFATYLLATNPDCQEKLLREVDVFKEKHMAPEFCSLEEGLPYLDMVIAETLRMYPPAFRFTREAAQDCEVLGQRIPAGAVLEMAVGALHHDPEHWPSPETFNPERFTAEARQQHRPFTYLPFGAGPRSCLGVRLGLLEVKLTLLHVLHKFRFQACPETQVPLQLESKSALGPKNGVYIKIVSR
The experiment in a line: biochemical. In kind it is tissue-based, Platelet.

For a further assay, the target named is T2, D(4) dopamine receptor (Homo sapiens, UniProt P21917).
T2 sequence (P21917 whole entry): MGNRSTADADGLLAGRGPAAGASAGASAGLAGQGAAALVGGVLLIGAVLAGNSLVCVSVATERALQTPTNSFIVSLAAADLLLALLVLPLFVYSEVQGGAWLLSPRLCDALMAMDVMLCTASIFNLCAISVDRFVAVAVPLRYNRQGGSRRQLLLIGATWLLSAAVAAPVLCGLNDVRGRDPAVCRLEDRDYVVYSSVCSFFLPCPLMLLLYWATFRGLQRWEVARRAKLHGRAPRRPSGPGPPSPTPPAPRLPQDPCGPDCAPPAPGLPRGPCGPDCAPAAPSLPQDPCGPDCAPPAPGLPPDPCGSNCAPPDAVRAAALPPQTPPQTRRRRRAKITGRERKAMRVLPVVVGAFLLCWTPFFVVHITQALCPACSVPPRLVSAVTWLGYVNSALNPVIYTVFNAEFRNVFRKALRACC
The experiment in a line: DRUGMATRIX: Dopamine D4.2 radioligand binding (ligand: [3H] Spiperone). In kind it is cell membranes, CHO-K1, Membrane. The conditions noted are these: cho-k1; Not Active = under 50% inhibition at 10 µM.

Assay [4] deals with T3, Cysteinyl leukotriene receptor 1 (Homo sapiens, UniProt Q9Y271).
T3 sequence (Q9Y271 whole entry): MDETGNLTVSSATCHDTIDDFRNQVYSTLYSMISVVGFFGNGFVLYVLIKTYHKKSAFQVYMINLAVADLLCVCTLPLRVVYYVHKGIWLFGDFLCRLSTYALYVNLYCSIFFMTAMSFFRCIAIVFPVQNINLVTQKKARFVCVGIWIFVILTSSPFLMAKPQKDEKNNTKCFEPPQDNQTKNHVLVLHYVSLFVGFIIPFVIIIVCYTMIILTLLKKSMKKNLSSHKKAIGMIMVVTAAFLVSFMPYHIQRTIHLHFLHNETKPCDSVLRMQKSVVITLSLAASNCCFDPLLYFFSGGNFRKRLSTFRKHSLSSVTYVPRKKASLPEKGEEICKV
In kind it is cell membranes, CHO-K1, Membrane. The conditions noted are these: cho-k1.

5-hydroxytryptamine receptor 4, sequence (O70528 whole entry): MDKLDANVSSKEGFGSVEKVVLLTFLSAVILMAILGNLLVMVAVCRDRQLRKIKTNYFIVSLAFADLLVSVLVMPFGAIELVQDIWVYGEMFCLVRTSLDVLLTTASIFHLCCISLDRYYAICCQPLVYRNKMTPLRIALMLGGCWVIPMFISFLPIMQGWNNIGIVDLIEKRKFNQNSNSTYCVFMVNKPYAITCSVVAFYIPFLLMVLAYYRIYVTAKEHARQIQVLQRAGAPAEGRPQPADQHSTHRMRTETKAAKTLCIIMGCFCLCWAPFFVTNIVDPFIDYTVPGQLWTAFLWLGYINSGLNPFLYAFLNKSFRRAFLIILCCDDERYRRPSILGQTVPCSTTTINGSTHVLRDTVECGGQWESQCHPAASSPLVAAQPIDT

One may read the IC50 as the point on the concentration scale where inhibition reaches its midpoint. On to `CC(=O)O[C@]1(C(C)=O)CC[C@H]2[C@@H]3C[C@H](C)C4=CC(=O)CC[C@]4(C)[C@H]3CC[C@@]21C` [MEDROXYPROGESTERONE ACETATE], for which the half-inhibitory concentration (IC50) result (in assay [1]; in assay [2]; in assay [3]; against Thromboxane-A synthase (platelet); on D(4) dopamine receptor; in assay [4]) was “Not Active” throughout. Besides, the Ki result in assay [1] and in assay [2] was “Not Active” each time.
Consider `Cc1ccnc(NS(=O)(=O)c2ccc(N)cc2)n1` [SULFAMERAZINE], for which the IC50 entry (in assay [1]; in assay [2]; in assay [3]; against Thromboxane-A synthase (platelet); at D(4) dopamine receptor; in assay [4]) was “Not Active” each time. In addition, the Ki result in assay [1] and in assay [2] was “Not Active” each time.
In the case of `O=C(c1ccccc1)c1ccc2n1CCC2C(=O)O` (stereo not drawn) [KETOROLAC], the IC50 entry (in assay [1]; in assay [2]; in assay [3]; at Thromboxane-A synthase (platelet); at D(4) dopamine receptor; in assay [4]) was “Not Active” each time. The Ki entry in assay [1] and in assay [2] was “Not Active” throughout.
Regarding `Cc1nnc(NS(=O)(=O)c2ccc(N)cc2)s1` [SULFAMETHIZOLE], the concentration for half-maximal inhibition (IC50) entry (in assay [1]; in assay [2]; in assay [3]; against Thromboxane-A synthase (platelet); on D(4) dopamine receptor; in assay [4]) was “Not Active” in each case. Also, the Ki result in assay [1] and in assay [2] was “Not Active” each time.
On to `CCC(C)(C)C(=O)O[C@H]1C[C@@H](C)C=C2C=C[C@H](C)[C@H](CC[C@@H]3C[C@@H](O)CC(=O)O3)[C@H]21` [SIMVASTATIN], for which the IC50 result (in assay [1]; in assay [2]; in assay [3]; at Thromboxane-A synthase (platelet); on D(4) dopamine receptor; in assay [4]) was “Not Active” in each case. The Ki result in assay [1] and in assay [2] was “Not Active” each time.
With `Oc1ccc(/C=C/c2cc(O)cc(O)c2)cc1` [RESVERATROL], the IC50 result (in assay [1]; in assay [2]; in assay [3]; against Thromboxane-A synthase (platelet); on D(4) dopamine receptor; in assay [4]) was “Not Active” each time. For the same compound, the Ki result in assay [1] and in assay [2] was “Not Active” each time.
`Cc1cnc(NC(=O)C2=C(O)c3ccccc3S(=O)(=O)N2C)s1` [MELOXICAM]: the IC50 entry (in assay [1]; in assay [2]; in assay [3]; on Thromboxane-A synthase (platelet); on D(4) dopamine receptor; in assay [4]) was “Not Active” each time. The Ki entry in assay [1] and in assay [2] was “Not Active” throughout.
Regarding `CC[C@H](C)[C@@H](CO[C@@H](Cc1ccccc1)C(=O)N[C@@H](CCS(C)(=O)=O)C(=O)OC(C)C)NC[C@@H](N)CS`, the IC50 result (in assay [1]; in assay [2]; in assay [3]; on Thromboxane-A synthase (platelet); on D(4) dopamine receptor; in assay [4]) was “Not Active” each time. The Ki result in assay [1] and in assay [2] was “Not Active” throughout.
For `O=C1CC[C@@]2(O)[C@H]3Cc4ccc(O)c5c4[C@@]2(CCN3CC2CC2)[C@H]1O5` [NALTREXONE], the half-inhibitory concentration (IC50) entry (in assay [1]; in assay [2]; in assay [3]; at Thromboxane-A synthase (platelet); on D(4) dopamine receptor; in assay [4]) was “Not Active” each time. The Ki result in assay [1] and in assay [2] was “Not Active” throughout.
Consider `C=CCc1ccc2c(c1)OCO2` [SAFROLE], for which the IC50 result (in assay [1]; in assay [2]; in assay [3]; at Thromboxane-A synthase (platelet); at D(4) dopamine receptor; in assay [4]) was “Not Active” throughout. Moreover, the Ki result in assay [1] and in assay [2] was “Not Active” throughout.
In the case of `O=[As][O-].[Na+]` [SODIUM ARSENITE], the IC50 entry (in assay [1]; in assay [2]; in assay [3]; on Thromboxane-A synthase (platelet); at D(4) dopamine receptor; in assay [4]) was “Not Active” throughout. Moreover, the Ki entry in assay [1] and in assay [2] was “Not Active” each time.
For `Cc1cn([C@H]2C=C[C@@H](CO)O2)c(=O)[nH]c1=O` [STAVUDINE], the IC50 result (in assay [1]; in assay [2]; in assay [3]; against Thromboxane-A synthase (platelet); at D(4) dopamine receptor; in assay [4]) was “Not Active” throughout. Further, the Ki entry in assay [1] and in assay [2] was “Not Active” in each case.
On to `COC(=O)Nc1nc2ccc(C(=O)c3ccccc3)cc2[nH]1` [MEBENDAZOLE], for which the IC50 entry (in assay [1]; in assay [2]; in assay [3]; on Thromboxane-A synthase (platelet); at D(4) dopamine receptor; in assay [4]) was “Not Active” throughout. Moreover, the Ki result in assay [1] and in assay [2] was “Not Active” throughout.
As to `CC[C@H](C)C(=O)O[C@H]1CCC=C2C=C[C@H](C)[C@H](CC[C@@H]3C[C@@H](O)CC(=O)O3)[C@H]21` [MEVASTATIN], the IC50 result (in assay [1]; in assay [2]; in assay [3]; on Thromboxane-A synthase (platelet); on D(4) dopamine receptor; in assay [4]) was “Not Active” in each case. Also, the Ki result in assay [1] and in assay [2] was “Not Active” throughout.
Consider `O=C(OC[C@H]1O[C@@H](OC(=O)c2cc(O)c(O)c(OC(=O)c3cc(O)c(O)c(O)c3)c2)[C@H](OC(=O)c2cc(O)c(O)c(OC(=O)c3cc(O)c(O)c(O)c3)c2)[C@@H](OC(=O)c2cc(O)c(O)c(OC(=O)c3cc(O)c(O)c(O)c3)c2)[C@@H]1OC(=O)c1cc(O)c(O)c(OC(=O)c2cc(O)c(O)c(O)c2)c1)c1cc(O)c(O)c(OC(=O)c2cc(O)c(O)c(O)c2)c1` [TANNIC ACID], for which the IC50 entry was “Not Active” in assay [1]; “Not Active” in assay [2]; “Not Active” in assay [3]; 325 nM on Thromboxane-A synthase (read-out: IC50); “Not Active” at D(4) dopamine receptor; “Not Active” in assay [4]. For the same compound, the Ki result in assay [1] and in assay [2] was “Not Active” throughout.
LEAD(IV) ACETATE: the IC50 entry (in assay [1]; in assay [2]; in assay [3]; against Thromboxane-A synthase (platelet); at D(4) dopamine receptor; in assay [4]) was “Not Active” each time. In addition, the Ki entry (in assay [1]; in assay [2]; in assay [3]; on Thromboxane-A synthase (platelet); on D(4) dopamine receptor; in assay [4]) was “Not Active” in each case.
As for `CC#C[C@]1(O)CC[C@H]2[C@@H]3CCC4=CC(=O)CCC4=C3[C@@H](c3ccc(N(C)C)cc3)C[C@@]21C` [MIFEPRISTONE], the IC50 result (in assay [1]; in assay [2]; in assay [3]; at Thromboxane-A synthase (platelet); at D(4) dopamine receptor; in assay [4]) was “Not Active” each time. The Ki entry in assay [1] and in assay [2] was “Not Active” in each case.
In the case of `Cc1[nH]c(=O)c(C#N)cc1-c1ccncc1` [MILRINONE], the IC50 entry (in assay [1]; in assay [2]; in assay [3]; against Thromboxane-A synthase (platelet); at D(4) dopamine receptor; in assay [4]) was “Not Active” throughout. The Ki result in assay [1] and in assay [2] was “Not Active” each time.
